In patent publication US20230159496A1, “COMPOUNDS AND METHODS FOR MODULATING SPLICING” (REMIX THERAPEUTICS INC., priority 2020, published 2023):
Where two headings read alike, the source gives them in different places.

Experiments:
Type in all cases: cell-based
[1] = test system: Target C CJ mRNA; assay: Gene panel canonical junction qPCR assay, Target C; conditions: decrease in CJ mRNA levels, gene panel; read-out: Target C IC50
Experimental: (§1) The expression of a target mRNA was measured by detecting the formation of an exon-exon junction in the canonical transcript (CJ). A compound mediated exon-inclusion event was detected by observing an increase in formation of a new junction with an alternative exon (AJ). Real-time qPCR assays were used to detect these splicing switches and interrogate the potency of various compounds towards different target genes. A high-throughput real time quantitative PCR (RT-qPCR) assay was developed to measure these two isoforms of the mRNA (CJ and AJ) for an exemplary gene, HTT, together with a control housekeeping gene, GAPDH or GUSB or PPIA, used for normalization. Briefly, the A673 or K562 cell line was treated with various compounds described herein (e.g., compounds of Formula (I)). After treatment, the levels of the HTT mRNA targets were determined from each sample of cell lysate by cDNA synthesis followed by qPCR. The A673 cell line was cultured in DMEM with 10% FBS. Cells were diluted with full growth media and plated in a 96-well plate (15,000 cells in 100 ul media per well). The plate was incubated at 37° C. with 5% CO2 for 24 hours to allow cells to adhere. An 11-point 3-fold serial dilution of the compounds was made in DMSO then diluted in media in an intermediate plate. Compounds were transferred from the intermediate plate to the cell plate with the top dose at a final concentration of 10 uM in the well. Final DMSO concentration was kept at or below 0.25%. The cell plate was returned to the incubator at 37° C. with 5% CO2 for an additional 24 hours. The K562 cell line was cultured in IMDM with 10% FBS. For K562, cells were diluted with full growth media and plated in either a 96-well plate (50,000 cells in 50 uL media per well) or a 384-well plate (8,000-40,000 cells in 45 uL media per well). An 11-point 3-fold serial dilution of the compounds were made in DMSO then diluted in media in an intermediate plate. Compound was transferred from the intermediate plate to the cell plate with the top dose at a final concentration of 10 uM in the well. Final DMSO concentration was kept at or below 0.25%. Final volume was 100 uL for 96-well plate and 50 uL for 384-well plate. The cell plate was then placed in an incubator at 37° C. with 5% CO2 for 24 hours. The cells were then gently washed with 50 uL-100 uL cold PBS before proceeding to addition of lysis buffer. 30 uL-50 uL of room temperature lysis buffer with DNAse I (and optionally RNAsin) was added to each well. Cells were shaken/mixed thoroughly at room temperature for 5-10 minutes for lysis to take place and then 3 uL-5 uL of room temperature stop solution was added and wells were shaken/mixed again. After 2-5 minutes, the cell lysate plate was transferred to ice for RT-qPCR reaction setup. The lysates could also be frozen at −80° C. for later use. In some cases, a direct lysis buffer was used. An appropriate volume of 3× lysis buffer (10 mM Tris, 150 mM NaCl, 1.5%-2.5% Igepal and 0.1-1 U/uL RNAsin, pH 7.4) was directly added to either K562 or A673 cells in media and mixed by pipetting 3 times. The plates were then incubated at room temperature with shaking/rocking for 20-50 minutes to allow for lysis to take place. After this time, the cell lysate plate was transferred to ice to set up for the RT-qPCR reactions. The lysates could also be frozen at −80° C. for later use. To set up 10 uL RT-qPCR reactions, cell lysates were transferred to 384-well qPCR plates containing the master mix according to the table below. The plates were sealed, gently vortexed, and spun down before the run. The volumes were adjusted accordingly in some instances where the reaction was carried in 20 uL. The table below summarizes the components of the RT-qPCR reactions: The RT-qPCR reaction was performed using a QuantStudio (ThermoFisher) under the following fast cycling conditions. All samples and standards were analyzed at least in duplicate.

[2] = test system: HTT mRNA; assay: Splicing assay (RT-qPCR) monitoring HTT canonical junction (CJ) and alternative junction (AJ) mRNA isoforms; conditions: A673 or K562 cells, 24 h treatment, top dose 10 uM
Experimental: Compounds described herein were used to modulate RNA transcript abundance in cells. The expression of a target mRNA was measured by detecting the formation of an exon-exon junction in the canonical transcript (CJ). A compound mediated exon-inclusion event was detected by observing an increase in formation of a new junction with an alternative exon (AJ). Real-time qPCR assays were used to detect these splicing switches and interrogate the potency of various compounds towards different target genes. A high-throughput real time quantitative PCR (RT-qPCR) assay was developed to measure these two isoforms of the mRNA (CJ and AJ) for an exemplary gene, HTT, together with a control housekeeping gene, GAPDH or GUSB or PPIA, used for normalization. Briefly, the A673 or K562 cell line was treated with various compounds described herein (e.g., compounds of Formula (I)). After treatment, the levels of the HTT mRNA targets were determined from each sample of cell lysate by cDNA synthesis followed by qPCR.
• Cells-to-CT 1-step kit: ThermoFisher A25602, Cells-to-CT lysis reagent: ThermoFisher 4391851C, TaqMan™ Fast Virus 1-Step Master Mix: ThermoFisher 4444436 • GAPDH: VIC-PL, ThermoFisher 4326317E (Assay: Hs99999905_m1)—used for K562/suspension cell lines • GUSB: VIC-PL, ThermoFisher 4326320E (Assay: Hs99999908_m1)—used for K562/suspension cell lines • PPIA: VIC-PL, ThermoFisher 4326316E (Assay: Hs99999904_m1) — used for A673/adherent cell lines
The A673 cell line was cultured in DMEM with 10% FBS. Cells were diluted with full growth media and plated in a 96-well plate (15,000 cells in 100 ul media per well). The plate was incubated at 37° C. with 5% CO2 for 24 hours to allow cells to adhere. An 11-point 3-fold serial dilution of the compounds was made in DMSO then diluted in media in an intermediate plate. Compounds were transferred from the intermediate plate to the cell plate with the top dose at a final concentration of 10 uM in the well. Final DMSO concentration was kept at or below 0.25%. The cell plate was returned to the incubator at 37° C. with 5% CO2 for an additional 24 hours.
The K562 cell line was cultured in IMDM with 10% FBS. For K562, cells were diluted with full growth media and plated in either a 96-well plate (50,000 cells in 50 uL media per well) or a 384-well plate (8,000-40,000 cells in 45 uL media per well). An 11-point 3-fold serial dilution of the compounds were made in DMSO then diluted in media in an intermediate plate. Compound was transferred from the intermediate plate to the cell plate with the top dose at a final concentration of 10 uM in the well. Final DMSO concentration was kept at or below 0.25%. Final volume was 100 uL for 96-well plate and 50 uL for 384-well plate. The cell plate was then placed in an incubator at 37° C. with 5% CO2 for 24 hours.
The cells were then gently washed with 50 uL-100 uL cold PBS before proceeding to addition of lysis buffer. 30 uL-50 uL of room temperature lysis buffer with DNAse I (and optionally RNAsin) was added to each well. Cells were shaken/mixed thoroughly at room temperature for 5-10 minutes for lysis to take place and then 3 uL-5 uL of room temperature stop solution was added and wells were shaken/mixed again. After 2-5 minutes, the cell lysate plate was transferred to ice for RT-qPCR reaction setup. The lysates could also be frozen at −80° C. for later use.
In some cases, a direct lysis buffer was used. An appropriate volume of 3× lysis buffer (10 mM Tris, 150 mM NaCl, 1.5%-2.5% Igepal and 0.1-1 U/uL RNAsin, pH 7.4) was directly added to either K562 or A673 cells in media and mixed by pipetting 3 times. The plates were then incubated at room temperature with shaking/rocking for 20-50 minutes to allow for lysis to take place. After this time, the cell lysate plate was transferred to ice to set up for the RT-qPCR reactions. The lysates could also be frozen at −80° C. for later use. […]

[3] = test system: SMN2 CJ mRNA; assay: Gene panel canonical junction qPCR assay, SMN2; conditions: decrease in CJ mRNA levels, gene panel; read-out: SMN2 IC50
Experimental: as §1

[4] = test system: HTT CJ mRNA; assay: Gene panel canonical junction qPCR assay, HTT; conditions: decrease in CJ mRNA levels, gene panel; read-out: HTT IC50
Experimental: as §1

[5] = decrease in CJ mRNA (50% response), read-out: HTT CJ AC50
[6] = increase in AJ mRNA (50% response), read-out: HTT AJ AC50

| SMILES | IC50 [1] [nM] | AC50 [2, 5] [nM] | AC50 [2, 6] [nM] | IC50 [3] [nM] | IC50 [4] [nM] |
| --- | --- | --- | --- | --- | --- |
| Cc1cn2cc(-c3ccc4c(=O)n(C5CCNCC5)cnc4c3)c(C)cc2n1 [Compound 244] | > 10000 | > 10000 | > 10000 | 100 to 1000 | > 10000 |
| Cc1cn2cc(-c3ccc4c(=O)n(C5CCNCC5)ncc4c3)cc(F)c2n1 [Compound 248, 6-[8-fluoro-2-methylimidazo[1,2-a]pyridin-6-yl]-2-(piperidin-4-yl)phthalazin-1-one] | 100 to 1000 | < 100 | 100 to 1000 | < 100 | < 100 |
| Cc1cc(-c2ccc3nc(NC4CCN(C)CC4)[nH]c(=O)c3c2)cc2cn(C)nc12 [Compound 167] | > 10000 | > 10000 | > 10000 | > 10000 | > 10000 |
| Cc1cn2cc(-c3ccc4c(c3)CCN(C3CCNCC3)C4=O)nc2c(C)n1 [Compound 221] | > 10000 | > 10000 | > 10000 | 100 to 1000 | > 10000 |
| CCN1CCC(n2ncc3cc(-c4cc(C)c5nc(C)cn5n4)ccc3c2=O)CC1 [Compound 266] | 100 to 1000 | < 100 | < 100 | < 100 | < 100 |
| Cc1cn2cc(-n3cnc4cc(N5CCN(C)CC5)ccc4c3=O)cc(F)c2n1 [Compound 229, 3-(8-fluoro-2-methylimidazo[1,2-a]pyridin-6-yl)-7-(4-methylpiperazin-1-yl)quinazolin-4(3H)-one] | > 10000 | > 10000 | > 10000 | > 10000 | > 10000 |
| Cc1cn2cc(-c3ccc4c(=O)n(C5CCNCC5)cnc4c3F)cc(F)c2n1 [Compound 210, 8-fluoro-7-(8-fluoro-2-methylimidazo[1,2-a]pyridin-6-yl)-3-(piperidin-4-yl)quinazolin-4(3H)-one] | 1000 to 10000 | 1000 to 10000 | 1000 to 10000 | 100 to 1000 | 1000 to 10000 |
| Cc1cn2cc(-c3ccc4c(=O)n(C5CCNC6(CC6)C5)cnc4c3)cc(F)c2n1 (stereo not shown) [Compound 236, 7-(8-fluoro-2-methylimidazo[1,2-a]pyridin-6-yl)-3-(4-azaspiro[2.5]octan-7-yl)quinazolin-4(3H)-one] | 100 to 1000 | 100 to 1000 | 100 to 1000 | < 100 | 100 to 1000 |
| CN1CCN(c2ccc3c(=O)n(-c4ccc5nn(C)cc5c4)cnc3c2)CC1 [Compound 152, 3-(2-methyl-2H-indazol-5-yl)-7-(4-methylpiperazin-1-yl)quinazolin-4(3H)-one] | > 10000 | > 10000 | > 10000 | > 10000 | > 10000 |
| Cc1cn2nc(-c3ccc4c(=O)n(C5CCOCC5)ncc4c3)cc(C)c2n1 [Compound 275] | > 10000 |  |  |  | > 10000 |
| Cc1cn2nc(-c3ccc4c(=O)n([C@H]5CCN[C@H](C)C5)ncc4c3)cc(C)c2n1 [Compound 273] | 100 to 1000 | < 100 | 100 to 1000 |  | < 100 |
| CC[C@@H]1C[C@@H](n2ncc3cc(-c4cc(C)c5nc(C)cn5n4)ccc3c2=O)CCN1 [Compound 305, 6-{2,8-dimethylimidazo[1,2-b]pyridazin-6-yl}-2-[(2R,4S)-2-ethylpiperidin-4-yl]phthalazin-1-one] | 100 to 1000 | 100 to 1000 | 1000 to 10000 |  | 100 to 1000 |
